# From patent US11613785B2, “Predictive and diagnostic methods for prostate cancer” (OnkosXcel Therapeutics, LLC, priority 2017, dated 2023)
# Columns and labels:
# [1] = system: NK cells, macrophages, FoxP3+ Tregs in tumor; assay: Immunophenotyping of tumor samples by RT-PCR; type: in vivo; details: TRAMP mouse tumor samples
# Protocol: Immunophenotyping of tumor samples by RT-PCR: Tumor RNA samples are extracted from the frozen tumor tissues using the Trizol reagent. Reverse transcription is carried out using a kit from Takara (Catalog No. #RR047A). Quantitative PCR are conducted using a master mix from Invitrogen (Catalog No. #4309155) on an ABI 7900HT Fast Real-Time PCR System. The results are analyzed using a Delta Ct Method. The marker gene and respective oligo sequence used in this study are from the NIH q-RT-PCR primer database (mouseqprimerdepot.nih.gov) these are associated with the Ncrl and Pfrl (NK cell receptor) a marker characteristic to the NK cell and their activation respectively, while the Gmbz is meant for quantifying the release of granzyme B and the FoxP3 associated with CD25+CD4+ Tregs. Statistical Analysis: A one-way ANOVA is also used to assess the statistical difference between the vehicle group and all other groups in the blood sample immune-phenotyping and q-RT-PCR assay as well as on the microarray samples on the indicated day. All the data is analyzed using GraphPad Prism 5. p<0.05 is statistically significant (*, p<0.05; **, p<0.01; ***, p<0.001).
# [2] = system: TRAMP mouse model of NEPC; assay: Efficacy study (tumor volume) in transgenic mouse model of NEPC (TRAMP mouse); type: in vivo; details: TRAMP mice; talabostat mesylate 20 μg qd p.o.; PD-1 antagonist 10 mg/kg i.p. twice weekly
# Excerpt: Efficacy Study of Talabostat Mesylate and PD-1 Antagonist in Transgenic Mouse Model of NEPC (TRAMP Mouse)
# Reagents and Antibodies: RPMI-1640 medium (Catalog No.: A1049101), Glutamax (Catalog No.: 35050061), Trypsin-EDTA (0.25%) (Catalog No.: 25200-056), Penicillin-Streptomycin (Catalog No.: 15070-063), HBSS (Catalog No.: 14175-095) are procured form Gibco, while Fetal bovine serum (FBS) (Catalog No.: 004-001-1A) is purchased from Biological Industries. The anti-PD-1 antibody (PD-1 antagonist (clone: RMPI-14, Catalog no: BE0146)) is supplied by Bioxcell at 6.61 mg/ml. Stock solutions of PD-1 antagonist, at 1 mg/ml concentrations are prepared and kept at 4° C. prior to use. Dosing solutions of PD-1 antagonist are prepared freshly at a concentration of 1 mg/ml, before every administration in sterile phosphate buffered saline (PBS), pH 7.0 and administered a dose of 10 mg/kg, intraperitoneally (i.p) into, 20 g mouse. […]
# Tumor size and body weights are measured twice weekly. Tumor volumes are measured twice per week in two dimensions using a caliper, and the volume are expressed in mm^3 using the formula: V=0.5 a×b^2 where a and b are the length and width of the tumor, respectively. […] Tumor volume is expressed in mm^3, is measured with caliper on day 5, 8, 12, 15, 19, 22, 26 and day 29.
substance,measurement,setting,value
talabostat mesylate,FoxP3+ Treg population (relative mRNA expression of FoxP3) in tumor samples,[1],reduction in the FoxP3 population
same,tumor reduction (tumor volume),[2],significant effect
